Source: US5728724A, “Benzothiophene compounds” (Eli Lilly and Company, priority 1996, dated 1998)

Tests used:
Assay type in all cases: in vivo, Sprague Dawley rats
[1] = test system: femur density of ovariectomized rats; test: Osteoporosis Test (bone density of ovariectomized rats); details: OVX rats, daily for 35 days
Text: Following the General Preparation Procedure, infra, the rats or treated daily for 35 days (6 rats per treatment group) and sacrificed by carbon dioxide asphyxiation on the 36th day. The 35 day time period is sufficient to allow maximal reduction in bone density, measured as described herein. At the time of sacrifice, the uteri are removed, dissected free of extraneous tissue, and the fluid contents are expelled before determination of wet weight in order to confirm estrogen deficiency associated with complete ovariectomy. […] The uteri are then placed in 10% neutral buffered formalin to allow for subsequent histological analysis. The right femurs are excised and digitilized x-rays generated and analyzed by an image analysis program (NIH image) at the distal metaphysis. The proximal aspect of the tibiae from these animals are also scanned by quantitative computed tomography. In general, ovariectomy of test animals will cause a significant reduction in femur density compared to intact, vehicle treated controls.

[2] = test system: uterus of ovariectomized (OVX) rats; test: Uterine weight in ovariectomized rats (post-menopausal model, agonist activity)
Experimental: (§1) In the examples illustrating the methods, a post-menopausal model was used in which effects of different treatments upon circulating lipids were determined.
(§2) Seventy-five day old female Sprague Dawley rats (weight range of 200 to 225g) were obtained from Charles River Laboratories (Portage, Mich.). The animals were either bilaterally ovariectomized (OVX) or exposed to a Sham surgical procedure at Charles River Laboratories, and then shipped after one week. Upon arrival, they were housed in metal hanging cages in groups of 3 or 4 per cage and had ad libitum access to food calcium content approximately 0.5%) and water for one week. Room temperature was maintained at 22.2°±1.7° C. with a minimum relative humidity of 40%. The photoperiod in the room was 12 hours light and 12 hours dark.
(§3) Dosing Regimen Tissue Collection. After a one week acclimation period (therefore, two weeks post-OVX) daily dosing with test compound was initiated. […] Animals were dosed daily for 4 days. Following the dosing regimen, animals were weighed and anesthetized with a ketamine: Xylazine (2:1, V:V) mixture and a blood sample was collected by cardiac puncture. The animals were then sacrificed by asphyxiation with CO2, the uterus was removed through a midline incision, and a wet uterine weight was determined.

[3] = test system: Uterine Eosinophil Peroxidase (EPO); test: Uterine Eosinophil Peroxidase (EPO) Assay in ovariectomized rats; set-up: key: max velocity of A450 increase over a 15 s interval; details: 0.1 mg/kg, oral, daily for 4 days, OVX rats
Experimental: as §1, §2, §3
Uterine Eosinophil Peroxidase (EPO) Assay. Uteri were kept at 4° C. until time of enzymatic analysis. The uteri were then homogenized in 50 volumes of 50 mM Tris buffer (pH-8.0) containing 0.005% Triton X-100. Upon addition of 0.01% hydrogen peroxide and 10 mM O-phenylenediamine (final concentrations) in Tris buffer, increase in absorbance was monitored for one minute at 450 nm. The presence of eosonophils in the uterus is an indication of estrogenic activity of a compound. The maximal velocity of a 15 second interval was determined over the initial, linear portion of the reaction curve.

Serum Cholesterol = test: Serum cholesterol analysis in ovariectomized rats; details: OVX rats
Experimental: as §1, §2, §3
Cholesterol Analysis. Blood samples were allowed to clot at room temperature for 2 hours, and serum was obtained following centrifugation for 10 minutes at 3000 rpm. Serum cholesterol was determined using a Boehringer Mannheim Diagnostics high performance cholesterol assay. Briefly the cholesterol was oxidized to cholest-4-en-3-one and hydrogen peroxide. The hydrogen peroxide was then reacted with phenol and 4-aminophenazone in the presence of peroxidase to produce a p-quinone imine dye, which was read spectrophotemetrically at 500 nm. Cholesterol concentration was then calculated against a standard curve. The entire assay was automated using a Biomek Automated Workstation.

C#C[C@]1(O)CC[C@H]2[C@@H]3CCc4cc(O)ccc4[C@H]3CC[C@@]21C [EE2, 17α-ethynyl estradiol, reference compound]
Prevention of bone loss after ovariectomy, result in words [1]: usually prevents this loss
change in vivo at 0.1 mg/kg ([2]; Rattus norvegicus, po, 96 h, 0.1 mg/kg, daily for 4 days, read-out: Uterine Weight (% increase vs. OVX)): 86.3%
Uterine weight / uterine stimulation, result in words ([2]; oral, EE2 at 0.1 mg/kg/day): exerted a stimulatory action on the uterus so that EE2 uterine weight was substantially greater than the uterine weight of ovariectomized test animals
Uterine EPO (V. max) [3]: 116.4
inhibition in vivo at 0.1 mg/kg (Serum Cholesterol; Rattus norvegicus, po, 96 h, 0.1 mg/kg, daily for 4 days, read-out: Serum Cholesterol (% decrease vs. OVX)): 81.4%
Serum cholesterol, result in words (Serum Cholesterol; oral, EE2 at 0.1 mg/kg/day): caused a decrease in serum cholesterol
